{"source": "patent US8859625B2", "about": "“Methods to prepare penta-1,4-dien-3-ones and substituted cyclohexanones and derivatives with antitumoral and antiparasitic properties, the compounds and their uses” (Universidade Bandeirante de Sao Paulo-Academia, Paulista …, priority 2006, dated 2014)", "key": {"B16F10 melanoma": {"system": "B16F10 melanoma", "assay": "B16F10 melanoma tumors implanted in C57BL/6J mice, intraperitoneal treatment; tumor area and volume", "type": "in vivo", "conditions": "diluted in Miglyol 810, intraperitoneal 1.15 μg/kg daily, to Day 14; tumor volume and area", "experimental": "After the Day 4 of tumor cells implant (2×10^5 tumoral cells/mL), the animals were splitted in two groups: the test group, treated with HB-1 compound diluted in Miglyol 810® and the control group, which received only the diluent (Miglyol 810®) in the same volume as the test group. The animals were daily treated by intraperitoneal route. Concomitantly, measurements of animal weight and tumor size (two measures—length×width) were performed and tumor aspect registered by photographies.\nAfter the Day 14, the animals were sacrificed by cervical displacement, tumors were removed, and necropsy performed to remove all internal organs and macroscopic lesions for hystopathologic analysis.\nTumoral parameters were obtained by calculation of tumor average area (A) and volume (V), through the following formulas A=πR^2 and V=4/3πR^3, where (R=average tumor radius). […]\nAfter tumoral cell implant, the animals were treated with the HB-2 compound diluted in Miglyol 810® and with (HB2+HB-1) conjugate whereas the control group received the same volume of diluent and by the same administration route (intraperitoneal—100 μl). Daily, the animals received the compounds (100 μl) and the control group received Miglyol 810®, the animals were weighted, and the tumors were measured (length×width) and photographed. […]"}, "B16F10 melanoma cells": {"system": "B16F10 melanoma cells", "assay": "Cytotoxic and antiproliferative effects by the MTT colorimetric method on B16F10 melanoma cells", "type": "cell-based, murine", "conditions": "Mus musculus, B16-F10, 24 h, compound diluted in Miglyol 810; 24 hour; from the linear equation; read-out: IC50", "excerpt": "Analysis of Cytotoxic and Antiproliferative Effects of HB-1 Compound and Miglyol 810® as Control by the MTT Colorimetric Method on B16F10 Melanoma Cells.\nThe colorimetric methodology for the respiratory route of mitochondria MTT (3-(4,5-dimethylthiazol-2-yl)2,5-diphenyl tetrazolium bromide) was used, as described by MOSMANN (1983). This method is based on the reduction of MTT to formazan by living cells. After growth and in vitro confluence of normal and tumoral cells, different concentrations of the HB-1 compound diluted in Miglyol 810® and the diluent-control (Miglyol 810®) have been added on the adhering cells, incubated for 24 hour. After the referred period, 10 μl of MTT (5 mg/mL) were added and incubated for 3 hours in stove with 5% CO2 at 37° C. After this period, the content of the culture plates were centrifuged for 2 minutes at 1800 rpm, at 4° C., the supernatant was removed and 100 μL of dimethyl sulfoxide (DMSO) were added to dissolve formazan crystals previously constituted and precipitated. The absorbances were obtained by an ELISA reader at 540 nm (TiterTek Multiskan) wavelength, with the results obtained shown in FIG. 12.\nIC50 Evaluation for B16F10 Melanoma Cells, Obtained from the Linear Equation."}, "[1]": {"system": "Leishmania (isolate L.C.L.) promastigotes", "assay": "Promastigote viability by MTT, L.C.L. isolate, Warren medium", "type": "cell-based", "conditions": "for O.D. (optical density at 595/690 nm, average of duplicates): Warren medium", "experimental": "Viability and/or cellular proliferative assays of promastigote and amastigote forms are also performed by the MTT (diphenyl tetrazolium 3-[4,5-dimethylthiazol-2il]2,5-bromide) method as described by Moreira, et al. (Moreira, M. E. C., Del Portillo, H. A., Milder, R. V., Balanco, J. M. F. and Barcinski, M. A. Heat shock induction of apoptosis in promastigotes of the unicellular organism Leishmania (Leishmania) amazonensis, J. Cell Physiol 167, 305-313, 1996), modified.\nAfter incubation of parasitic forms with the compounds, as described above, for predetermined periods of time for each experiment (24, 48, 72 hours, etc.), an 1.0 mL aliquot of cellular suspension is collected from each culture tube or vial and transferred to microcentrifuge tubes, where they are centrifuged at 14.000 rpm for 3 minutes, the culture medium is aspirated and discharged. To the sedimented cells are add 200 μL of PBS. After that, the volume in PBS of the cellular suspensions is splitted into two wells (duplicates of 100 μL each) of a 96 well culture plate. To each duplicate, […] of MTT (5 mg/mL stock solution, […]) are added. After 1 h or 1 h 30 min, at a temperature of 22° C. (promastigotes) or 34° C. (amastigotes), 100 μL of 10% SDS are added to each well to interrupt the reaction, to lyse the cells and to dissolve the formazan crystals, resulting in an homogeneous blue solution appropriate to the absorbance measure by a spectrophotometer for culture microplates (3550 BIORAD model, Richmond, Calif.), at 595 nm as test wavelength and 690 nm as the reference wavelength.\nThe optical density (O.D.) values correspond to MTT enzymatic reduction by the metabolic active cells. Consequently, the O.D. is directly proportional to the number of viable cells of the cellular suspension. The progressive increase of O.D. indicates cellular proliferation. Results are expressed as arithmetic average of the optical density duplicates.\nThis experiment is developed in the Warren medium using an initial inoculum of 2.0×10^6/mL of the medium for the isolates. Cultures were at the day 7^h of passage and at the final exponential phase growth (day 6 of incubation). The results of viability determination for the Leishmania (isolate L.C.L.) promastigotes, incubated in Warren medium and in the presence of HB-1, are shown in the next Table and in FIG. 36. The culture final volume is of 5 mL and the MTT reactions are processed in 1 h and 30 minutes of incubation, beginning with 1.0 mL of culture."}}, "data": [{"smiles": "COc1cc(C=CC(=O)C=Cc2ccc(O)c(OC)c2)ccc1O", "note": "[HB-1, 1,5-Bis-(4-hydroxy-3-methoxy-phenyl)-penta-1,4-dien-3-one]", "values": [{"measurement": "percentage of inhibitory treatment for B16F10 melanoma", "setting": "B16F10 melanoma", "result": "higher than 98%"}, {"measurement": "IC50", "setting": "B16F10 melanoma cells", "result": 7, "unit": "µg/mL"}, {"measurement": "effect in words", "setting": "[1]; HB-1 5 μg/mL", "result": "partial inhibition of proliferation"}, {"measurement": "O.D. (optical density at 595/690 nm, average of duplicates)", "setting": "[1]; HB-1 5 μg/mL, 24 hours", "result": 0.489}, {"measurement": "O.D. (optical density at 595/690 nm, average of duplicates)", "setting": "[1]; HB-1 5 μg/mL, 48 hours", "result": 0.452}, {"measurement": "O.D. (optical density at 595/690 nm, average of duplicates)", "setting": "[1]; HB-1 5 μg/mL, 72 hours", "result": 1.346}, {"measurement": "O.D. (optical density at 595/690 nm, average of duplicates)", "setting": "[1]; HB-1 5 μg/mL, 96 hours", "result": 1.834}, {"measurement": "effect in words", "setting": "[1]; HB-1 10 μg/mL", "result": "leishmaniostatic effect"}, {"measurement": "O.D. (optical density at 595/690 nm, average of duplicates)", "setting": "[1]; HB-1 10 μg/mL, 24 hours", "result": 0.177}, {"measurement": "O.D. (optical density at 595/690 nm, average of duplicates)", "setting": "[1]; HB-1 10 μg/mL, 48 hours", "result": 0.153}, {"measurement": "O.D. (optical density at 595/690 nm, average of duplicates)", "setting": "[1]; HB-1 10 μg/mL, 72 hours", "result": 0.176}, {"measurement": "O.D. (optical density at 595/690 nm, average of duplicates)", "setting": "[1]; HB-1 10 μg/mL, 96 hours", "result": 0.187}, {"measurement": "effect in words", "setting": "[1]; HB-1 20 μg/mL", "result": "leishmanicide"}, {"measurement": "O.D. (optical density at 595/690 nm, average of duplicates)", "setting": "[1]; HB-1 20 μg/mL, 24 hours", "result": 0.056}, {"measurement": "O.D. (optical density at 595/690 nm, average of duplicates)", "setting": "[1]; HB-1 20 μg/mL, 48 hours", "result": 0.014}, {"measurement": "O.D. (optical density at 595/690 nm, average of duplicates)", "setting": "[1]; HB-1 20 μg/mL, 72 hours", "result": 0.012}, {"measurement": "O.D. (optical density at 595/690 nm, average of duplicates)", "setting": "[1]; HB-1 20 μg/mL, 96 hours", "result": 0.012}]}]}
